# Assays:
# human ANO6 [1] = target: T1, human ANO6 (Homo sapiens, UniProt Q4KMQ2); test: LACT C2 assay (phosphatidylserine scramblase function assay); type: cell-based; conditions: FRT cells expressing human ANO6, 10 μM ionomycin; for inhibition at 1 µM: test compound 1 μM, read-out: Inhibition Level 1 μM; for inhibition at 0.1 µM: test compound 100 nM, read-out: Inhibition Level 100 nM
# T1 construct: expressed in transfected cells
# T1 sequence (Q4KMQ2 1-931 isoform Q4KMQ2-2): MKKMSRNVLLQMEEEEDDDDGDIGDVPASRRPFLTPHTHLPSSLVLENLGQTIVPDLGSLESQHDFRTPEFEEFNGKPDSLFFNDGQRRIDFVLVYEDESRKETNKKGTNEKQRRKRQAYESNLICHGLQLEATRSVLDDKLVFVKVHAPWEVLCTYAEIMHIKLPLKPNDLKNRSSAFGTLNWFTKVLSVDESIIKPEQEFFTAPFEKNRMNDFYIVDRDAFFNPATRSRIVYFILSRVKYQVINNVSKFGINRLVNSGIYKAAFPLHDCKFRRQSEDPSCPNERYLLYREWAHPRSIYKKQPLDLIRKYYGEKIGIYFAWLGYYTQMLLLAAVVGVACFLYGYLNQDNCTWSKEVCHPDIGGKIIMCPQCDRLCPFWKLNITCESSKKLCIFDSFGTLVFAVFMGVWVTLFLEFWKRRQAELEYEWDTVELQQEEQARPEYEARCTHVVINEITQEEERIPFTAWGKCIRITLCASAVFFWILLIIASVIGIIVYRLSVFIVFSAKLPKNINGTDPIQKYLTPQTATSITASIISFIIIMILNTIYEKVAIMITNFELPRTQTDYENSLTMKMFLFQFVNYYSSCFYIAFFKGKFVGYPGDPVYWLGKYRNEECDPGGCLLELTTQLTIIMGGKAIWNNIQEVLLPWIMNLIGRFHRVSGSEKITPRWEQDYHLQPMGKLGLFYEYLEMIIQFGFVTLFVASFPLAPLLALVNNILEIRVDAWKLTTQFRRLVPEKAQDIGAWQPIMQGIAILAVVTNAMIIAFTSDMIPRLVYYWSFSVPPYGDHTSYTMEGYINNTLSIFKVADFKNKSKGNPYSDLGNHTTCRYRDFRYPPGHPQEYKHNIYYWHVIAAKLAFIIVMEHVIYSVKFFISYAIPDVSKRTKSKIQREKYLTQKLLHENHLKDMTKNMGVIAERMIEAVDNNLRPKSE
# Method in brief: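 Inhibition was normalised between ionomycin-only (0%) and untreated (100%) wells, with triplicates averaged. Readout was background-corrected Lact-C2-GFP (500 nM) fluorescence from imaged cells. The cells were FRT cells stably expressing human ANO6, given compound at 1% DMSO for 10 min before a 10 min 10 μM ionomycin challenge.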
# human ANO6 [2] = target: T1, human ANO6; test: YFP quenching assay (ANO6 ion channel activity); type: cell-based; conditions: 10 μM ionomycin; for inhibition at 1 µM: test compound 1 μM, read-out: Inhibition Level 1 μM; for inhibition at 30 µM: test compound 30 μM, read-out: Inhibition Level 30 μM
# Method in brief: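 FRT cells stably expressing human ANO6 and YFP-H148Q/I152L/F46L, preincubated 10 min at 40° C with compounds (1% DMSO) in PBS. Quench read every 0.4 s after injecting 140 mM SCN- with 10 μM ionomycin; % inhibition from the 3.6–7.6 s fluorescence difference, normalised to no-ionomycin (100%) and ionomycin-only (0%) wells, duplicate or triplicate.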
Structure (SMILES),inhibition at 1 µM (human ANO6 [1]),inhibition at 1 µM (human ANO6 [2]),inhibition at 30 µM (human ANO6 [2]),inhibition at 0.1 µM (human ANO6 [1])
"Cc1ccc(CNC(=O)c2cccc(Nc3cnc(-c4ccccc4)cn3)c2)o1 [Compound 1, N-[(5-methylfuran-2-yl)methyl]-3-[(5-phenylpyrazin-2-yl)amino]benzamide]",≥ 60%,30 to 60%,≥ 60%,
"Cc1ccc(CNC(=O)c2cccc(Nc3ncc(-c4ccccc4)cn3)c2)o1 [Compound 2, N-[(5-methylfuran-2-yl)methyl]-3-[(5-phenylpyrimidin-2-yl)amino]benzamide]",≥ 60%,30 to 60%,≥ 60%,< 30%
"Cc1ccc(CNC(=O)c2cccc(Nc3ccc(-c4ccccc4)cc3)c2)o1 [Compound 3, 3-({[1,1′-biphenyl]-4-yl}amino)-N-[(5-methylfuran-2-yl)methyl]benzamide]",≥ 60%,≥ 60%,≥ 60%,< 30%
"Cc1ccc(CNC(=O)c2cccc(Nc3ccc(-c4ccccc4)cn3)c2)o1 [Compound 4, N-[(5-methylfuran-2-yl)methyl]-3-[(5-phenylpyridin-2-yl)amino]benzamide]",≥ 60%,≥ 60%,≥ 60%,< 30%
"Cc1ccc(CNC(=O)c2cccc(Nc3ccc(-c4ccccc4)nc3)c2)o1 [Compound 6, N-[(5-methylfuran-2-yl)methyl]-3-[(6-phenylpyridin-3-yl)amino]benzamide]",30 to 60%,≥ 60%,≥ 60%,
"Cc1ccc(CNC(=O)c2cccc(Nc3ccc(-c4ccoc4)nn3)c2)o1 [Compound 7, 3-{[6-(furan-3-yl)pyridazin-3-yl]amino}-N-[(5-methylfuran-2-yl)methyl]benzamide]",≥ 60%,≥ 60%,≥ 60%,< 30%
"Cc1ccc(CNC(=O)c2cccc(Nc3ccc(-c4cccnc4)nn3)c2)o1 [Compound 10, N-[(5-methylfuran-2-yl)methyl]-3-{[6-(pyridin-3-yl)pyridazin-3-yl]amino}benzamide]",< 30%,≥ 60%,≥ 60%,
"CC(C)(C)CNC(=O)c1cccc(Nc2ccc(-c3ccccc3)nn2)c1 [Compound 24, N-(2,2-dimethylpropyl)-3-[(6-phenylpyridazin-3-yl)amino]benzamide]",< 30%,30 to 60%,≥ 60%,
"O=C(NC1CCC1)c1cccc(Nc2ccc(-c3ccccc3)nn2)c1 [Compound 25, N-cyclobutyl-3-[(6-phenylpyridazin-3-yl)amino]benzamide]",30 to 60%,30 to 60%,≥ 60%,
"O=C(Nc1cccc(F)c1)c1cccc(Nc2ccc(-c3ccccc3)nn2)c1 [Compound 29, N-(3-fluorophenyl)-3-[(6-phenylpyridazin-3-yl)amino]benzamide]",≥ 60%,≥ 60%,≥ 60%,30 to 60%
"O=C(NCC1CCC1)c1cccc(Nc2ccc(-c3ccccc3)nn2)c1 [Compound 30, N-(cyclobutylmethyl)-3-[(6-phenylpyridazin-3-yl)amino]benzamide]",30 to 60%,≥ 60%,≥ 60%,
"O=C(NCC1CCCCC1)c1cccc(Nc2ccc(-c3ccccc3)nn2)c1 [Compound 31, N-(cyclohexylmethyl)-3-[(6-phenylpyridazin-3-yl)amino]benzamide]",≥ 60%,≥ 60%,≥ 60%,< 30%
"O=C(NCC1CC1)c1cccc(Nc2ccc(-c3ccccc3)nn2)c1 [Compound 32, N-(cyclopropylmethyl)-3-[(6-phenylpyridazin-3-yl)amino]benzamide]",< 30%,≥ 60%,≥ 60%,
"O=C(NCC1CCCC1)c1cccc(Nc2ccc(-c3ccccc3)nn2)c1 [Compound 33, N-(cyclopentylmethyl)-3-[(6-phenylpyridazin-3-yl)amino]benzamide]",≥ 60%,≥ 60%,≥ 60%,< 30%
"O=C(NCc1ccc(Cl)c(Cl)c1)c1cccc(Nc2ccc(-c3ccccc3)nn2)c1 [Compound 36, N-(3,4-dichlorobenzyl)-3-((6-phenylpyridazin-3-yl)amino)benzamide]",≥ 60%,≥ 60%,≥ 60%,30 to 60%
"O=C(NC1CC1)c1cccc(Nc2ccc(-c3ccccc3)nn2)c1 [Compound 38, N-cyclopropyl-3-[(6-phenylpyridazin-3-yl)amino]benzamide]",< 30%,≥ 60%,≥ 60%,
"O=C(NCc1cccs1)c1cccc(Nc2ccc(-c3ccccc3)nn2)c1 [Compound 39, 3-[(6-phenylpyridazin-3-yl)amino]-N-[(thiophen-2-yl)methyl]benzamide]",< 30%,≥ 60%,≥ 60%,
"Cc1ccc(CNC(=O)c2cccc(Nc3ccc(-c4ccccc4)nn3)c2)s1 [Compound 40, N-[(5-methylthiophen-2-yl)methyl]-3-[(6-phenylpyridazin-3-yl)amino]benzamide]",≥ 60%,≥ 60%,≥ 60%,< 30%

Structure (SMILES),inhibition at 1 µM (human ANO6 [1]),inhibition at 1 µM (human ANO6 [2]),inhibition at 30 µM (human ANO6 [2]),inhibition at 0.1 µM (human ANO6 [1])
COc1cccc(CNC(=O)c2cccc(Nc3ccc(-c4ccc(F)cc4)nn3)c2)c1 [Compound A29],,30 to 60%,≥ 60%,
Cc1ccc(-c2ccc(Nc3cccc(C(=O)NCc4ccc(Br)cc4)c3)nn2)cc1 [Compound A30],,,< 30%,
Cc1ccc(-c2ccc(Nc3cccc(C(=O)NC(C)C)c3)nn2)cc1 [Compound A31],,30 to 60%,≥ 60%,
Cc1ccc(-c2ccc(Nc3cccc(C(=O)NCC(C)C)c3)nn2)cc1 [Compound A33],,30 to 60%,≥ 60%,
CCN(CCCNC(=O)c1cccc(Nc2ccc(-c3ccccc3)nn2)c1)Cc1ccccc1 [Compound A42],,30 to 60%,≥ 60%,
O=C(NC1CCCc2ccccc21)c1cccc(Nc2ccc(-c3ccccc3)nn2)c1 (stereo not shown) [Compound A56],,30 to 60%,≥ 60%,
CCN(CC)CCCNC(=O)c1cccc(Nc2ccc(-c3ccccc3)nn2)c1 [Compound A59],,< 30%,30 to 60%,
COc1ccc(OC)c(CNC(=O)c2cccc(Nc3ccc(-c4ccccc4)nn3)c2)c1 [Compound A60],,30 to 60%,≥ 60%,
COc1ccc(CNC(=O)c2cccc(Nc3ccc(-c4ccccc4)nn3)c2)c(OC)c1 [Compound A61],,30 to 60%,≥ 60%,
COCCCNC(=O)c1cccc(Nc2ccc(-c3ccccc3)nn2)c1 [Compound A69],,30 to 60%,≥ 60%,
COc1ccccc1NC(=O)c1cccc(Nc2ccc(-c3ccccc3)nn2)c1 [Compound A71],,,30 to 60%,
COc1cccc(C(C)NC(=O)c2cccc(Nc3ccc(-c4ccccc4)nn3)c2)c1 (stereo not shown) [Compound A79],,30 to 60%,≥ 60%,
CCN(CC)c1ccc(CNC(=O)c2cccc(Nc3ncc(-c4cccc(F)c4)cn3)c2)cc1 [Compound A81],,30 to 60%,,
O=C(NC1CCCc2ccccc21)c1cccc(Nc2ncc(-c3cccc(F)c3)cn2)c1 (stereo not shown) [Compound A82],,30 to 60%,,
O=C(NCC1CCCO1)c1cccc(Nc2ncc(-c3cccc(F)c3)cn2)c1 (stereo not shown) [Compound A83],,30 to 60%,,
NC(=O)c1ccc(Nc2ccc(-c3ccccc3)nn2)cc1 [Compound A86],,,30 to 60%,
O=C(NCCc1ccccc1)c1cccc(Nc2ncc(-c3cccc(F)c3)cn2)c1 [Compound A88],,30 to 60%,,
O=C(NCCN1CCCCC1)c1cccc(Nc2ccc(-c3ccccc3)nn2)c1 [Compound A90],,< 30%,,

# Reference: US20230080054A1 (ILDONG PHARMACEUTICAL CO., LTD., priority 2021, published 2023)
